Tests used:
[1] = Retention time of the compound by HPLC analysis; assay type: physicochemical
[2] = Cytotoxicity against human BGC823 cells by MTT assay; assay type: functional, cell-based; conditions: BGC-823
[3] = system: MOLT-4; test: Cytotoxicity against human MOLT4 cells by MTT assay; assay type: functional, cell-based
[4] = system: NCI-H1975; test: Cytotoxicity against human NCI-H1975 cells by MTT assay; assay type: functional, cell-based
[5] = Cytotoxicity against human HuH7 cells by MTT assay; assay type: functional, cell-based; conditions: Huh-7
[6] = system: U-937; test: Cytotoxicity against human U937 cells by MTT assay; assay type: functional, cell-based
[7] = system: HL-60; test: Cytotoxicity against human HL60 cells by MTT assay; assay type: functional, cell-based
[8] = system: K562; test: Cytotoxicity against human K562 cells by MTT assay; assay type: functional, cell-based
[9] = system: MCF7; test: Cytotoxicity against human MCF7 cells by MTT assay; assay type: functional, cell-based

| Retention_time [1] [min] | SMILES | IC50 [2] [µM] | IC50 [3] [µM] | IC50 [4] [µM] | IC50 [5] [µM] | IC50 [6] [µM] | IC50 [7] [µM] | IC50 [8] [µM] | IC50 [9] [µM] |
| --- | --- | --- | --- | --- | --- | --- | --- | --- | --- |
| 23.144 | COC(=O)[C@@](O)(C[C@@H](O)C(=O)O)[C@@H]1Cc2c(oc3cc(C)cc(O)c3c2=O)S1 | 10.1 | 5.74 |  |  |  |  |  |  |
|  | COC(=O)C[C@](O)(C(=O)OC)[C@@H]1Cc2c(oc3cc(C)cc(O)c3c2=O)S1 | 1.96 | 1.36 | 5.45 | 6.33 | 4.16 | 2.96 | 8.8 | 4.32 |
| 24.796 | COC(=O)[C@H](O)C[C@](O)(C(=O)OC)[C@@H]1Cc2c(oc3cc(C)cc(O)c3c2=O)S1 | 4.89 | 0.3 | 10.4 | 9.49 | 2.35 | 2.55 | 4.53 | 11.3 |
|  | COC(=O)[C@H](O)C[C@](O)(C(=O)OC)[C@H]1Cc2c(oc3cc(C)cc(O)c3c2=O)S1 |  | 2.3 |  |  | 5 | 6.41 |  |  |
|  | COC(=O)[C@@H](C[C@](O)(C(=O)OC)[C@@H]1Cc2c(oc3cc(C)cc(O)c3c2=O)S1)OC(=O)[C@](OC)(c1ccccc1)C(F)(F)F | 8.82 | 5.89 |  |  | 9.85 |  |  |  |
|  | COC(=O)[C@@H](C[C@](O)(C(=O)OC)[C@@H]1Cc2c(oc3cc(C)cc(O)c3c2=O)S1)OC(=O)[C@@](OC)(c1ccccc1)C(F)(F)F | 5.53 | 4.81 |  |  | 9.04 | 7.54 | 1.34 |  |
|  | COC(=O)[C@@H](C[C@](O)(C(=O)OC)[C@@H]1Cc2c(oc3cc(C)cc(O)c3c2=O)S1)OC(=O)c1ccc([N+](=O)[O-])cc1 | 8.01 | 3.66 | 6.97 | 6 | 6.37 | 3.96 | 9.68 | 7.37 |
|  | COC(=O)[C@@H](C[C@](O)(C(=O)OC)[C@@H]1Cc2c(oc3cc(C)cc(OC(=O)c4ccc([N+](=O)[O-])cc4)c3c2=O)S1)OC(=O)c1ccc([N+](=O)[O-])cc1 | 4.49 | 2.96 |  | 8.77 | 6.34 | 3.09 | 1.04 | 6.05 |
|  | COC(=O)[C@@H](C[C@](O)(C(=O)OC)[C@@H]1Cc2c(oc3cc(C)cc(O)c3c2=O)S1)OC(=O)c1cc(C(F)(F)F)cc(C(F)(F)F)c1 | 3.95 | 3.02 | 2.33 |  | 4.06 | 3.79 | 6.9 | 6.94 |
|  | COC(=O)[C@@H](C[C@](OC(=O)c1cc(C(F)(F)F)cc(C(F)(F)F)c1)(C(=O)OC)[C@@H]1Cc2c(oc3cc(C)cc(OC(=O)c4cc(C(F)(F)F)cc(C(F)(F)F)c4)c3c2=O)S1)OC(=O)c1cc(C(F)(F)F)cc(C(F)(F)F)c1 |  |  |  |  | 7.2 |  |  |  |
|  | COC(=O)[C@@H](C[C@](O)(C(=O)OC)[C@@H]1Cc2c(oc3cc(C)cc(OC(=O)c4ccccc4)c3c2=O)S1)OC(=O)c1ccccc1 |  | 3.99 |  |  |  | 4.46 |  |  |
|  | COC(=O)[C@@H](C[C@](O)(C(=O)OC)[C@H]1Cc2c(oc3cc(C)cc(O)c3c2=O)S1)OC(=O)[C@@](OC)(c1ccccc1)C(F)(F)F | 8.81 | 6.03 |  |  |  | 9.14 |  |  |
